Reference: patent publication US20240197816A1, “COMPOSITION AND METHOD FOR PROLONG SURVIVAL OF TRANSPLANT AND RECIPIENT” (NovMetaPharma Co., Ltd., priority 2022, published 2024)

Experiments:
[1] = tested on: F344 donor kidney transplanted into LEWIS rats; assay: Survival of recipients in rat allogeneic kidney transplantation, minor MHC incompatible model; type: in vivo; details: CHP 40 mg/kg i.v. 1 hour before transplantation, then 40 mg/kg i.p. three times a week, n=4, untreated control 9 days (n=7)
Procedure: Donor surgery: After removing abdominal hair from donor rat under general anesthesia, the surgical area was disinfected and covered with surgical cloth. After a midline incision in the abdominal wall, one kidney was exposed, and 8 iu/kg of heparin was administered intravenously, followed by nephrectomy.
Table Surgery: Removed unnecessary tissue to anastomosis the artery, vein, and ureter of the extracted kidney to the blood vessel and ureter of the recipient, and covered and stored with gauze soaked in saline at 4° C.
Recipient surgery: After removal of abdominal hair of recipient rat under general anesthesia, the surgical area was disinfected and covered with surgical cloth. After a midline incision in the abdominal wall, the right kidney was exposed, the kidney was resected, and the donor renal artery and vein were anastomized end to side to the […]. The ureter of donor's kidney was sutured after incising the bladder. After confirming that the perfusion of the kidney was good (FIG. 1), the abdominal wall was closed, and the animal was placed on a blanket at 37° C. to recover.
As a minor MHC incompatible model, a kidney transplantation model F344 rats were used as donors and LEWIS rats were used as recipients. After resection of the recipients' right kidney on Day 0 (DO), the donors' kidney was transplanted into the recipients. […]

[2] = tested on: transplanted kidney (F344 to LEWIS rats); assay: Weekly ultrasound (color Doppler) of blood flow to the transplanted kidney; type: in vivo, rat; details: CHP treatment group, ultrasound once a week
Procedure: In the control group, CHP administration group (F344 to LEWIS rats), and inbred (LEWIS to LEWIS rats) kidney transplantation model, ultrasound was performed once a week to check the smooth flow of blood to the transplanted kidney.

[3] = tested on: transplanted kidney (F344 to LEWIS rats); assay: Graft kidney tissue findings (histology); type: in vivo, rat; details: TPL+CHP group; graft tissue on the 45th day
Source text: These phenomena are believed to be an effect of CHP that can suppress the acute rejection reaction that occurs within days after transplantation. In FIG. 5, graft kidney tissue findings on the 7th day of rejection in the left […] control group (Syngenic TPL) and on the 45th day in the CHP treated group (TPL+CHP).

[4] = tested on: transplanted kidney (F344 to LEWIS rats); assay: Evaluation of graft function (BUN, serum creatinine) after kidney transplantation; type: in vivo, rat
Source text: Individual data points represent the following groups: the syngeneic transplant recipients (Syngenic; n=3), transplant recipients without CHP administration (TPL; n=5), and the CHP-treated transplant recipients (TPL+CHP; n=5). […] This significant improvement in key renal function indicators highlights a promising advancement in post-transplant care, reducing the reliance on immunosuppressive therapies, and prolonging recipient survival and enhancing graft survival.

[5] = tested on: transplanted kidney; Nrf2; assay: PAS and Nrf2 immunohistochemistry of transplanted kidney five days after transplantation; type: in vivo, rat
Source text: All animals were sacrificed at five days from post-kidney transplantation. The administration of CHP to the transplant recipient group decreased tubular atrophy, tubulitis, endothelialitis, leukocyte infiltration, while increasing the level of antioxidative stress marker Nrf2 (Nuclear factor erythroid-2-related factor). These findings highlight the potential of CHP to exert protective (e.g., anti-inflammatory and antioxidative) effects in the transplantation rat model.

## O=C1N[C@@H](Cc2cnc[nH]2)C(=O)N2CCC[C@@H]12 [CHP, Cyclo histidine-proline]
[1]
  mean survival day (SMD): 326 days
[2]
  blood flow to the transplanted kidney (ultrasound): blood flow to the kidney was smooth
[3]
  borderline changes suggestive of acute cell-mediated rejection and microvascular inflammation: rapidly decreased
  focal glomerular necrosis and severe tubulointerstitial changes: decrease
[4]; CHP-treated animals, entire period of survival, weekly measurements over 46 weeks
  function of the grafted organ: fully function
[4]; TPL+CHP group at 3 weeks after transplantation, syngenic group 0.71 mg/dL
  serum creatinine: 0.82 mg/dL
[4]; five days post-transplantation, TPL+CHP n=5, TPL without CHP 7.23±0.39, p<0.0001
  serum creatinine levels: 1.32 ± 0.13 mg/dL
[4]; five days post-transplantation, TPL+CHP n=5, TPL without CHP 193.5±8.54, p<0.0001
  blood urea nitrogen (BUN): 41.98 ± 5.69 mg/dL
[5]; Nrf2 immunohistochemistry
  level of antioxidative stress marker Nrf2: increasing
[5]; PAS staining
  tubular atrophy, tubulitis, endothelialitis, leukocyte infiltration: decreased
